# What was measured:
# Rat oral bioavailability = assay type: in vivo; settings: Sprague-Dawley, plasma, fasted male SD rats, IV 0.25 mg/kg, PO 1 mg/kg, based on AUC0-24hr, mean s.d., n=3
# Method: Methods for accessing bioavailability are well appreciated in the art. One such reference is Medicinal Research Reviews Vol 21 No. 5 382-396 (2001). Bioavailability of compounds may be estimated essentially as follows.
# Cohorts of three or four 250-450 gram male Sprague-Dawley rats or approximately 10 kg Beagle dogs (female or male) are used. […] Dogs are administered i.v. by cannulated cephalic vein and blood collections are by jugular vein. Animals are first dosed at 0.25 mg/kg i.v. and blood samples (0.2 mL) are then collected using EDTA as an anticoagulant at 0.0830, 0.25, 0.50, 1, 2, 4, 8, 12, 24, 48, 72, 96, and 120 hours. Next after at least two days and after 18-24 hours fasting, the animals are dosed at 1.0 mg/kg by oral gavage. During the course of a study the total of blood (ml) collected is not to exceed 1% of total body weight in grams. Should larger blood volumes be required, the sampled blood volume is replace with heparinized whole blood from a donor animal. When using a cross-over study design, rats receive a volume of heparinized whole blood following the final sample of each study day approximately equal to that removed during study.
# Compound plasma concentrations are measured by LC/MS/MS assays. Data are then analyzed using standard non-compartmental pharmacokinetic analysis. […]
# CYP3A = assay: Human CYP fingerprinting, ketoconazole inhibitor; assay type: in vitro ADME; settings: 4 μM, human liver microsomes, 30 min, ketoconazole 10 μM
# Method: (§1) CYP fingerprinting is well established technique and is used as an indication of potential risk of drug-drug interactions in the pharmaceutical sciences. Compounds of the present invention may be assayed by well known methods, essentially as follows: Compounds are incubated at 37° C. at a final concentration of 4 μM with pooled, mixed gender, human liver microsomes and 1 mM NADPH ([…]) (final conc.) for 0 and 30 min. without any CYP inhibitor and with each CYP inhibitor in separate incubations for 30 min. Each inhibitor is specific for an individual cytochrome P450. The specific inhibitors used for CYPs 2C9, 2D6 and 3A were sulfaphenazole, quinidine and ketoconazole, respectively. Ketoconazole (CYP3A) is made up at 25 mM in DMSO and then diluted in buffer to a final concetration of 10 μM. Quinidine (CYP2D6) is made up at 5 mM in 50/50 acetonitrile/water and then diluted in buffer to a final concetration of 10 μM. Sulfaphenazole (CYP2C9) is made up at 100 mM in DMSO and then diluted in buffer to a final concetration of 5 μM. Samples are analyzed by LC-MS in positive or negative electrospray mode using a Waters Acquity Ultra Performance LC coupled to a MicroMass Q-T of-2 mass spectrometer.
# (§2) Data are analyzed using MetaboLynx™ version 4.1. With inhibitor present, a reduction in metabolite peak area of less than 30% (relative to the uninhibited control incubation) receives a designation of low risk of Drug Drug Interaction (DDI), a reduction in peak area between 30% and 70% receives a moderate risk of DDI and a reduction of more than 70% receives a high risk of DDI.
# CYP2D6 = target: T1, CYP2D6 (Homo sapiens, UniProt P10635); assay: Human CYP fingerprinting, quinidine inhibitor; assay type: in vitro ADME; settings: 4 μM, human liver microsomes, 30 min, quinidine 10 μM
# T1 construct: pooled, mixed gender, human liver microsomes; from tissue; host or cells: pooled, mixed gender human liver microsomes
# Method: as §1, §2
# T1 sequence (P10635 whole entry): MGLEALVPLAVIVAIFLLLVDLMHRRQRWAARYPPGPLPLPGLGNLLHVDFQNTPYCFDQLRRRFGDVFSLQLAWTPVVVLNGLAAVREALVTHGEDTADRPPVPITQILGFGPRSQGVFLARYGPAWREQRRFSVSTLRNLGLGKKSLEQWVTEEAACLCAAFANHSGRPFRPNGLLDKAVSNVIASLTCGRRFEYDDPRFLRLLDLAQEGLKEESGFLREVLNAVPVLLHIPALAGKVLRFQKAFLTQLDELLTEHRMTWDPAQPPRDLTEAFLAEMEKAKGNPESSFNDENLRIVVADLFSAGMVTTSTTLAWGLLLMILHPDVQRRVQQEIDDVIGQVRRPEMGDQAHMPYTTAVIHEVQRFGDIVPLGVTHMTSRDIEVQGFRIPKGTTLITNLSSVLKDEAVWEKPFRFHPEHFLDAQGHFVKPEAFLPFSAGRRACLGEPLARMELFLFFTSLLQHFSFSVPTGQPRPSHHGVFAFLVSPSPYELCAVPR
compound,measurement,setting,value
"CC(C)(N[C@@H]1C[C@H](c2cccc(OC(F)(F)F)c2)N(c2ccc(C(F)(F)F)cc2)C1=O)c1ccnc(C(F)(F)F)n1.Cc1ccc(S(=O)(=O)O)cc1 [Example 5, (3R,5R)-3-[1-Methyl-1-(2-trifluoromethyl-pyrimidin-4-yl)-ethylamino]-5-(3-trifluoromethoxy-phenyl)-1-(4-trifluoromethyl-phenyl)-pyrrolidin-2-one tosylate]",bioavailability,Rat oral bioavailability,51%
same,Risk of Drug Drug Interaction (DDI) CYP3A,CYP3A,low (a reduction in metabolite peak area of less than 30% (relative to the uninhibited control incubation) receives a designation of low risk of Drug Drug Interaction (DDI))
same,Risk of Drug Drug Interaction (DDI) CYP2D6,CYP2D6,low (a reduction in metabolite peak area of less than 30% (relative to the uninhibited control incubation) receives a designation of low risk of Drug Drug Interaction (DDI))

# Reference: patent US8420654B2 (Eli Lilly and Company, priority 2008, dated 2013)
